Test results: ChEMBL document CHEMBL1142950, “Zooxanthellamide D, a polyhydroxy polyene amide from a marine dinoflagellate, and chemotaxonomic perspective of the Symbiodinium polyols” (J Nat Prod, 2007)
The source made the active and inactive calls. The rule behind the calls is not given here.

What was measured:
[1] = test system: Phytophthora capsici; assay: Antifungal activity against Phytophthora capsici by paper disk assay; format: functional, organism-based
[2] = test system: A-431; assay: Cytotoxicity against human A431 cells; format: cell-based
[3] = Cytotoxicity against human Nakata cells; format: cell-based

C=CC(=C)CC(=C)/C(C)=C/CC/C=C/C=C(\C)C[C@@H]1O[C@@H](C(O)C(O)C(O)/C(C)=C/C=C/CNC(=O)/C=C/C=C/C(O)CC(O)C(O)C[C@H]2O[C@@H]([C@H]3C[C@H](O)[C@H](O)[C@@](C)(CO)O3)[C@H](O)C(O)[C@@H]2O)[C@@H](O)[C@H](O)[C@H]1O (stereo partly drawn) [ZOOXANTHELLAMIDE D]
Activity [1]: inactive | IC50 [2]: 4.5 µM | IC50 [3]: 6.6 µM
